Experiments:
[1] = Manufacturability / solubilization of HL217 eye drop solution (appearance); assay type: physicochemical; settings: pH 6.5
Protocol: That is, according to the components and amounts shown in Table 1, HL217, polyethylene glycol 400, glycerin, EDTA, and boric acid were added to the sterile purified water under stirring. The pH was adjusted to 6.5 with an aqueous hydrochloric acid solution and/or an aqueous sodium hydroxide solution; and then sterile purified water was added to the solution, so as to adjust the final volume. The amounts in Table 1 represent the amount of each component per 1 mL of the total volume.
Since the maximum allowable concentration of the U.S. Food and Drug Administration for polyethylene glycol 400 is 50 mg/ml in an eye drop formulation, the amount of polyethylene glycol 400 was adjusted to 1/10 (i.e., 15.0 mg) and correspondingly the amount of glycerin was also adjusted to 1/10 (i.e., 12.0 mg) for evaluating the solubilization of HL217. […] Specifically, according to the components and amounts shown in Table 2, HL217, polyethylene glycol 400, glycerin, EDTA, and boric acid were added to the sterile purified water under stirring. The pH was adjusted to 4.5 with an aqueous hydrochloric acid solution and/or an aqueous sodium hydroxide solution; and then sterile purified water was added to the solution, so as to adjust the final volume. The amounts in Table 2 represent the amount of each component per 1 mL of the total volume. […]

[2] = system: mice with very low-density lipoprotein receptor (vldlr) gene knockout; assay: Inhibitory efficacy against vascular leakage in animal model of macular degeneration (FIG. 1); assay type: in vivo; settings: single intravitreal administration of 1 μl (50 ng/μl ranibizumab) in each eye
Protocol: Lucentis™ injection (Norvatis, Basel, Switzerland) was used as a positive control.
The control group was instilled with 1 drop of sterile physiological saline, in each eye of normal mice (n=8), twice daily for 3 weeks. The AMD-induced group was instilled with 1 drop of sterile physiological saline, in each eye of mice with vldlr gene knockout (vldlr −/− mice), twice daily for 3 weeks. The positive control group received 1 μl of Lucentis™ injection (containing 50 ng/μl of ranibizumab) in each eye of vldlr −/− mice, by a single intravitreal administration using a Hamiltion syringe (Hamilton company, Reno, NV, USA).
The following experiments were carried out In order to evaluate any abnormality of retinal blood vessels, such as angiogenesis formation and abnormal blood vessel permeability. […] The isolated retina was placed on a slide, dropped with an aqueous mounting medium (Fluoromount™, Sigma, St. Louis, MO, USA) and then observed under a fluorescence microscope. For quantitative analysis of tracer dye, blood was collected from the heart 10 minutes after the dye injection, perfused with sterile PBS to remove residual dye from the blood vessels, and then the eyes were extracted to isolate the retina. The isolated retina was homogenized with 100 μL of PBS and then centrifuged to obtain the supernatant, in which the amount of FITC-dextran was then measured using a spectrofluorophotometer. […]

Molecule | Appearance [1] | efficacy (vascular leakage and pathogenic angiogenesis) [2]
COC(OC)[C@]1(C)Oc2ccc(N)cc2[C@H](N(Cc2ncc[nH]2)c2ccc(Cl)cc2)[C@H]1O [HL217, (2R,3R,4S)-6-amino-4-[N-(4-chlorophenyl)-N-(1H-imidazol-2-ylmethyl)amino]-3-hydroxy-2-methyl-2-dimethoxymethyl-3,4-dihydro-2H-1-benzopyran] | precipitates were generated | –
Lucentis™ injection: Lucentis™ injection (Norvatis) containing 50 ng/μl of ranibizumab, used as a positive control (antibody, chains of the INN, looked up, V domains shown) VH: EVQLVESGGGLVQPGGSLRLSCAASGYDFTHYGMNWVRQAPGKGLEWVGWINTYTGEPTYAADFKRRFTFSLDTSKSTAYLQMNSLRAEDTAVYYCAKYPYYYGTSHWYFDVWGQGTLVTVSS VL: DIQLTQSPSSLSASVGDRVTITCSASQDISNYLNWYQQKPGKAPKVLIYFTSSLHSGVPSRFSGSGSGTDFTLTISSLQPEDFATYYCQQYSTVPWTFGQGTKVEIK | – | significant efficacy only at the 2nd week

Source: patent publication US11771647B2, “Eye drops in form of solution comprising benzopyran derivative or pharmaceutically acceptable salt thereof” (HANLIM PHARMACEUTICAL CO., LTD., priority 2018, dated 2023)
